According to patent EP0247971A2, “Novel pharmaceutical compositions comprising and use of cis-6-(4-acetanilido)-8,9-dimethoxy-2-methyl-1,2,3,4,4a,10b-hexahydrobenzo[c][1,6]naphthyridin” (SANDOZ AG, priority 1986, dated 1987):

Tests used:
Format in all cases: in vivo
[1] = system: patients exhibiting bronchial asthma; experiment: Clinical trial A: bronchodilator efficacy compared with placebo and/or Theophylline and with Salbutamol
Description: Criteria for inclusion are based on medical history and on initial examination. Subjects selected are of either sex, aged between 18 and 60 years, and identified as having a history of bronchial asthma and positive response to inhalation of β2-agonist therapy (e.g. Fenoterol or Salbutamol) or other bronchodilator therapy, e.g. with FEV-1 and/or PEFR increasing by 20% as documented 1 week before commencement of the trial. Baseline of FEV-1 and/or PEFR in each subject entered for the trial should be at least 20% below the predicted value, preferably also at the time of trial. The following exclusion criteria are applied: • - Severe chronic obstructive pulmonary disease, emphysema, active and progressive infection, status asthmaticus during the last 12 months. • - Any serious or chronic illness of the gastrointestinal system, liver or kidneys which may influence absorption, metabolism and excretion of the drugs. • - Diabetes mellitus. • - Any condition which might impair the ability of the physician to evaluate the progress of the patient.
Medication employed for the trial comprises: • A. (±)-COMPOUND (in the form of its bis-hydrogen maleate salt), in dry substance form. For administration the active ingre- ded is dissolved in pharmaceutical grade water, 30 - 60 mins. before ingestion: at a concentration of 1 g/100 ml, for administration at a dosage of 300 mg (30 ml), 200 mg (20 ml) or 100 mg (10 ml); at a concentration of 0.5 g/ 100 ml, for administration at a dosage of 50 mg (10 ml); or at a concentration of 0.25 g/100 ml for administration at a dosage of 25 mg (10 ml). • B. Theophylline solution at a dosage of 150 mg. • C. Placebo - aqueous solution only, no active ingredient. • D. Salbutamol, administered by inhalation in 3 puffs comprising 0.1 mg active ingredient/puff.
The trial is performed for each subject on 2, 3 or more separate days, each trial day being separated by a wash-out period of 3 to 7 days. […]

[2] = system: subjects exhibiting allergic, atopic bronchoconstrictor response; experiment: Clinical trial B: prophylactic efficacy compared with placebo (allergen challenge); conditions: vs placebo
Description: Suitable individual dosages, e.g. for (i)-COMPOUND as the bis-hydrogen maleate, in such clinical trials comprise e.g. ca. 1 to 25 mg administered by inhalation (for single administration or administration 2 to 3 daily) or ca. 25 to 100 mg orally (for single administration or administration 2 to 3x daily) up to ca. 200 or 300 mg orally (for single administration).
Both acute (0 to 1 hour) and long-term (up to 12 hour) change in lung function is determined post-medication by measurement of parameters (FVC, FEV 1 etc...) as set forth for clinical trial A above.
In addition to monitoring of lung function, blood eosinophil levels are also monitored and the incidence of activated eosinophils and eosinophil secretory proteins is determined. In individual studies, subjects are also subjected to lung lavage and the presence of eosinophils and platelets and their respective secretory products determined before and after exposure to allergen.

Guinea pigs = experiment: Suppression of airways hyperreactivity, sensitised animals (immune complexes); conditions: immune-complex treated animals, labelled platelets
Description: Guinea pigs are anaesthetised and airways resistance and compliance recorded as described under example lb^l above. […] Platelets are isolated and labelled with ^lllindium prior to intravenous infusion. Platelet accumulation is monitored by external crystal detectors [c.f. Morley et al. […] Allergic reaction is initiated by i.v. injection of preformed immune complexes (bovine y-globulin/ anti-bovine y-globulin), using a dose that is scarcely sufficient to induce bronchospasm at the first injection. By repeating the dose at regular (10 min.) intervals, bronchospasm of progressively increasing amplitude is evidenced. This effect is paralleled by an incremental retention of platelets within the airway vasculature. Following the last dose of immune complexes, the dose-effect relationship to histamine is re-defined. In animals so treated, induction of airways hyperreactivity is consistently observed.

asthmatic subjects = experiment: Clinical trial C: prophylactic/bronchodilator efficacy in asthma; conditions: additional bronchodilator dosaging on attack
Description: Initial dosaging is of the order of from 1 to 100 mg, e.g. from 5 to 50 mg per day, administered once or in divided dosages 2 or 3x daily, for administration by inhalation and of the order of from 25 to 300 mg per day administered once or in divided dosages 2 or 3x daily, for oral administration, with subsequent reduction in appropriate cases to a maintainance dosage of 1 to 50 mg, e.g. from 5 to 25 mg, per day for inhalation or from 25 to 100 or 200 mg per day orally. Administration is suitably effected in divided dosages 2 or 3x daily. During the course of the trial subjects are monitored continually and all relevant parameters recorded including lung function, alterations in the incidence of activated eosinophils or the release of eosinophil products into the blood or bronchial fluids and/or changes in the function of platelets ex vivo and, in particular,-frequency and severity of asthma exacerbation or attack. Additional bronchodilator dosaging may be provided on the occasion of any such attack.

SMILES | tolerance (reported side-effects and side-reactions) ([1]; all instances) | results compared with therapy B (Theophylline 150 mg) or D (Salbutamol inhalation) ([1]; higher dosage rates, e.g. of 50 mg or 100 mg and more) | lung-function ([1]; oral 25 to 300 mg, compared with placebo) | bronchorestrictor response to allergen ([2]; ca. 1 to 25 mg by inhalation or ca. 25 to 300 mg orally prior to allergen challenge) | eosinophilic response ([2]; dosages as indicated prior to allergen challenge) | platelet accumulation (Guinea pigs) | results employing COMPOUND at exacerbation or attack (asthmatic subjects)
COc1cc2c(cc1OC)[C@@H]1CN(C)CC[C@@H]1N=C2c1ccc(NC(C)=O)cc1 (racemic) [cis-6-(4-acetanilido)-8,9-dimethoxy-2-methyl-1,2,3,4,4a,10b-hexahydrobenzo[c][1,6]naphthyridin] | well tolerated | approach or are at least comparable | marked improvement | advance protection | reduction | – | –
COc1cc2c(cc1OC)[C@@H]1CN(C)CC[C@@H]1N=C2c1ccc(NC(C)=O)cc1 [COMPOUND, cis-6-(4-acetanilido)-8,9-dimethoxy-2-methyl-1,2,3,4,4a,10b-hexahydrobenzo[c][1,6]naphthyridin] | – | – | – | – | – | No inhibition | symptomatic efficacy
